Laboratory results as given in ChEMBL document CHEMBL3120110, “Design, synthesis, biological evaluation, and comparative docking study of 1,2,4-triazolones as CB1 receptor selective antagonists” (Eur J Med Chem, 2014).
pIC50: −log10 of the molar value.

Assays:
[1] = biological target: T1, Cannabinoid receptor 1 (Homo sapiens, UniProt P21554); details: CHO, at 10 µM
[2] = biological target: T2, Cannabinoid receptor 2 (Homo sapiens, UniProt P34972); experiment: Antagonist activity at CB2 receptor (unknown origin) stably expressed in CHO cells co-expressing co-expressing Ga15/16 assessed as calcium current after 45 mins by fluo-4 AM assay; assay type: functional, cell-based
T2 sequence (P34972 whole entry): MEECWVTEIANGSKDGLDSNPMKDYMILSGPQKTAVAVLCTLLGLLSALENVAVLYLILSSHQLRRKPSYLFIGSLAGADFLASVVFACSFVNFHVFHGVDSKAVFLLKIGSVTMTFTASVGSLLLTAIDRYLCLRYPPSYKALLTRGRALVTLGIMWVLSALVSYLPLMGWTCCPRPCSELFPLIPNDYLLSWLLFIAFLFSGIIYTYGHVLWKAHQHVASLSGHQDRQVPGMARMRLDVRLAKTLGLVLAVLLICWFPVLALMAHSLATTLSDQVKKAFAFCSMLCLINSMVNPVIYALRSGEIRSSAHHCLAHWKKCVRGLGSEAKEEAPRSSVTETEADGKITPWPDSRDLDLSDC

[3] = biological target: T2, Cannabinoid receptor 2; experiment: Antagonist activity at CB2 receptor (unknown origin) stably expressed in CHO cells co-expressing co-expressing Ga15/16 assessed as calcium current at 10 uM after 45 mins by fluo-4 AM assay relative to basal control; assay type: functional, cell-based
[4] = biological target: T1, Cannabinoid receptor 1; assay type: functional, cell-based, CHO

T1 sequence (P21554 whole entry): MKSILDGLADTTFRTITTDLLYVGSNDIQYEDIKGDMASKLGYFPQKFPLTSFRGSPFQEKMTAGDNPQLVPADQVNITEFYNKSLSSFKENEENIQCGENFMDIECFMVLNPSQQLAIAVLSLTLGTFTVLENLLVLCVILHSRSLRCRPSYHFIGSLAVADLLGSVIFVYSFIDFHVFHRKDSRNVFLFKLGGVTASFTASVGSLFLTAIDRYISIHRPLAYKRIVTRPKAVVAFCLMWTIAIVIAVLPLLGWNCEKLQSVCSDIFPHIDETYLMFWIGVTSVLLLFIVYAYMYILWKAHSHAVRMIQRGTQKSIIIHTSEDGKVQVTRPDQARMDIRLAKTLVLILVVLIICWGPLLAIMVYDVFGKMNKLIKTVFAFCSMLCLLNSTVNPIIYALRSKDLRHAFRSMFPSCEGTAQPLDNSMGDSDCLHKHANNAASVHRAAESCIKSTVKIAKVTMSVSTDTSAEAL

SMILES	inhibition [1]	pIC50 [2]	inhibition [3]	pIC50 [4]
Cc1ccc(Cn2c(-c3ccc(C)cc3)nn(C(=O)NC3CCCCC3)c2=O)cc1	60.9%	5.30	132%	4.75
Cc1ccc(Cn2c(-c3ccc(Cl)cc3)nn(C(=O)NC3CCCCC3)c2=O)cc1	42.6%	5.71	87.7%	–
Cc1ccc(NC(=O)n2nc(-c3ccc(C)cc3)n(-c3ccc(Cl)cc3)c2=O)cc1	91.9%	–	–	6.02
COc1ccc(-n2c(-c3ccc(Cl)cc3)nn(C(=O)NC3CCCCC3)c2=O)cc1	98.6%	5.82	94%	6.41
COc1ccc(-n2c(-c3ccc(Cl)cc3)nn(C(=O)Nc3ccc(C)cc3)c2=O)cc1	74.6%	4.70	85.6%	5.07
Cc1ccc(Cn2c(-c3ccc(Cl)cc3)nn(C(=O)Nc3ccc(C)cc3)c2=O)cc1	36.8%	–	–	–
Cc1ccc(-n2c(-c3ccc(Cl)cc3)nn(C(=O)NC3CCCCC3)c2=O)cc1	102%	–	46.4%	6.65
CCCCCOc1c(OC)ccc2cc(C(=O)NCc3ccc4c(c3)OCO4)c(=O)[nH]c12	37.6%	–	130%	–
COc1ccc(-c2nn(C(=O)Nc3ccc(C)cc3)c(=O)n2-c2ccc(Cl)cc2)cc1	96.6%	–	74%	5.64
COc1ccc(-c2nn(C(=O)Nc3ccc(Cl)cc3)c(=O)n2-c2ccc(C)cc2)cc1	90.5%	–	43.6%	5.33
COc1ccc(-c2nn(C(=O)NC3CCCCC3)c(=O)n2-c2ccc(C)cc2)cc1	98%	5.39	131%	5.74
Cc1ccc(-c2nn(C(=O)NC3CCCCC3)c(=O)n2-c2ccc(Cl)cc2)cc1	98.2%	–	58.5%	5.68
Cc1ccc(Cn2c(-c3ccc(C)cc3)nn(C(=O)Nc3ccc(Cl)cc3)c2=O)cc1	89%	–	29.9%	5.43
COc1ccc(-c2nn(C(=O)NC3CCCCC3)c(=O)n2-c2ccc(Cl)cc2)cc1	96.5%	5.22	124%	6.06
